Results as given in PubChem BioAssay AID2060498 (Molecular Pharmacology Branch, DTP, NCI, 2025).
Several values for one entry are separate records, joined by “and”; a condition that tells them apart may be missing. Equal entries are not always repeated. One block for each compound: values may come before it.

Tested on: 171881-019-R-J1-PDC tumor spheroids, viability
Assay: Anticancer human tumor 171881-019-R-J1-PDC patient-derived invasive breast carcinoma cell line growth inhibition [GQUAD]
Settings: spheroids with HUVEC and MSC; for viability, T/C: stronger effect = lower value
From the text: DNA G-quadruplex Stabilizer Agents in Combinations in Complex Spheroids
A high-throughput screen of multi-cell type tumor spheroids was designed to identify active combinations of DNA G-quadruplex stabilizer agents and targeted small molecules. Complex spheroids include a stromal component modeled by human endothelial cells (HUVEC) and fibroblasts modeled by human mesenchymal stem cells (MSCs). The concentration ranges selected for each drug and investigational agent were based upon clinically achievable concentrations if the clinical Cmax of the agent was known.
Compounds. The drugs and investigational agents: pidnarulex (CX-5461; NSC782164), APTO-253 (NSC789042), BRACO-19 (NSC847499), peposertib (NSC802822), ceralasertib (NSC780249), elimusertib (NSC800525), camonsertib (NSC841442), AZD-1390 (NSC803789), olaparib (NSC753686), talazoparib (NSC767125), ART-558 (NSC835418), sotorasib (NSC818433), MRTX-1133 (NSC836407), SN-38 (NSC673596), topotecan (NSC609699), etoposide (NSC141540), doxorubicin (NSC123127), gemcitabine (NSC613327), 5-fluorouracil (NSC19893), paclitaxel (NSC125973), vemurafenib (NSC761431), panobinostat (NSC761190), R-306465 (JNJ-16241199; NSC773264), adavosertib (NSC754352), TP-3654 (NSC805149), carboplatin (NSC241240), KSQ-4279 (NSC840948), and staurosporine (NSC755774) were obtained from the National Cancer Institute (NCI) Developmental Therapeutics Program Chemical Repository (34). The FDA-approved anticancer drug set is available from the NCI Developmental Therapeutics Program. […] The stock solutions were prepared in dimethyl sulfoxide (DMSO, Sigma-Aldrich, St. Louis, MO, cat. D2650) at 800-fold the tested concentration and stored at -70 degrees C prior to their use. All drugs and investigational agents were tested over a range starting from a high concentration at or near the clinical Cmax and decreasing in half-log increments. If the clinical Cmax for an agent had not been determined, the highest concentration tested was 10 microM.
2.3 Cell Culture. All cells were maintained in an incubator at 37 degrees C and 5% CO2 with 95% humidity. The PDC lines were cultured according to standard operating procedures established by the NCI PDMR. All PDCs were thawed and cultured in Matrigel-coated flasks prepared with a working solution of 1X Ham's F-12 nutrient mix, without supplementation (Invitrogen, cat. 11765054), 100 U/mL penicillin-streptomycin (Invitrogen, cat. 15140122), and 2.5% Matrigel (Corning Inc., cat. 354248) for the first three passages. The 857933-349-R-J2-PDC line was cultured in 6C/Colon 1B media, which includes advanced DMEM/F-12 (Thermo Fisher Scientific, cat. 12634028), 10 mM HEPES (Thermo Fisher Scientific, cat. 15630080), 1X GlutaMAX supplement (Thermo Fisher Scientific, cat. 35050061), 0.1 mg/mL primocin (InvivoGen, cat. ant-pm-2), 10% defined fetal bovine serum, heat inactivated (HyClone Laboratories Inc., cat. SH30070.03HI), 50% L-WRN conditioned media (ATCC, cat. CRL-3276), 1.25 mM N-Acetyl-L-cysteine (Sigma-Aldrich, cat. A9165), 10 mM nicotinamide (Sigma-Aldrich, cat. N0636), 1X B-27 supplement (Thermo Fisher Scientific, cat. 17504044), 1X N-2 supplement (Thermo Fisher Scientific, cat. 17502048), 10 microM Y-27632 dihydrochloride (Tocris Bioscience, cat. 1254), and 50 ng/mL human EGF recombinant protein (Thermo Fisher Scientific, cat. PHG0311). The 485176-168-R4-J1-PDC line was cultured in Panc media, which includes all 6C/Colon 1B media components plus 100 ng/mL human FGF-10 (Thermo Fisher Scientific, cat. 100-26), 500 nM SB-431542 (Selleckchem, cat. S1067), and gastrin (Tocris, cat. 3006).
[…]
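Also: spheroids exposed to compounds for 7 days.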
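For viability, T/C in this document: 100% = DMSO vehicle control viability.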

IC50 (curve of compound): 57.4 nM and 61 nM and 62 nM
Structure (SMILES): CC1COCCN1c1cc(-c2ccnn2C)c2ccnc(-c3ccn[nH]3)c2n1 (centres undefined)
viability, T/C (compound 0.0316 µM): 65.6% and 74.5% and 75.8% | viability, T/C (compound 0.1 µM): 35.5% and 31.4% and 31.2% | viability, T/C (compound 0.316 µM): 15.8% and 12.9% and 15.2% | viability, T/C (compound 1 µM): 8.71% and 4.99% and 7.86% | viability, T/C (compound 3.16 µM): 5% and 2.03% | viability, T/C (compound 10 µM): 4.63% and 1.67% and 5.37%

Structure (SMILES): O=C(c1cc(Cc2n[nH]c(=O)c3ccccc23)ccc1F)N1CCN(C(=O)C2CC2)CC1 + CN(C)c1ccc(Nc2c3ccc(NC(=O)CCN4CCCC4)cc3nc3cc(NC(=O)CCN4CCCC4)ccc23)cc1
IC50 (curve of first compound, second compound 0.0316 µM): > 10000 nM | IC50 (curve of first compound, second compound 0.1 µM): > 10000 nM | IC50 (curve of first compound, second compound 0.316 µM): > 10000 nM | IC50 (curve of first compound, second compound 1 µM): < 31.6 nM | IC50 (curve of first compound, second compound 3.16 µM): < 31.6 nM | IC50 (curve of first compound, second compound 10 µM): < 31.6 nM | viability, T/C (second compound 0.0316 µM, first compound 0.0316 µM): 98.5% | viability, T/C (second compound 0.0316 µM, first compound 0.1 µM): 98.5% | viability, T/C (second compound 0.0316 µM, first compound 0.316 µM): 107% | viability, T/C (second compound 0.0316 µM, first compound 1 µM): 96.3% | viability, T/C (second compound 0.0316 µM, first compound 3.16 µM): 90.7% | viability, T/C (second compound 0.0316 µM, first compound 10 µM): 94.2% | viability, T/C (second compound 0.1 µM, first compound 0.0316 µM): 107% | viability, T/C (second compound 0.1 µM, first compound 0.1 µM): 95.4% | viability, T/C (second compound 0.1 µM, first compound 0.316 µM): 91.1% | viability, T/C (second compound 0.1 µM, first compound 1 µM): 109% | viability, T/C (second compound 0.1 µM, first compound 3.16 µM): 91.7% | viability, T/C (second compound 0.1 µM, first compound 10 µM): 86.3% | viability, T/C (second compound 0.316 µM, first compound 0.0316 µM): 86.5% | viability, T/C (second compound 0.316 µM, first compound 0.1 µM): 94.1% | viability, T/C (second compound 0.316 µM, first compound 0.316 µM): 80.3% | viability, T/C (second compound 0.316 µM, first compound 1 µM): 78.5% | viability, T/C (second compound 0.316 µM, first compound 3.16 µM): 82% | viability, T/C (second compound 0.316 µM, first compound 10 µM): 60.8% | viability, T/C (second compound 1 µM, first compound 0.0316 µM): 31.7% | viability, T/C (second compound 1 µM, first compound 0.1 µM): 19.5% | viability, T/C (second compound 1 µM, first compound 0.316 µM): 25.3% | viability, T/C (second compound 1 µM, first compound 1 µM): 18.4% | viability, T/C (second compound 1 µM, first compound 3.16 µM): 20.2% | viability, T/C (second compound 1 µM, first compound 10 µM): 17.3% | viability, T/C (second compound 3.16 µM, first compound 0.0316 µM): 1.55% | viability, T/C (second compound 3.16 µM, first compound 0.1 µM): 1.44% | viability, T/C (second compound 3.16 µM, first compound 0.316 µM): 1.96% | viability, T/C (second compound 3.16 µM, first compound 1 µM): 1.41% | viability, T/C (second compound 3.16 µM, first compound 3.16 µM): 1.97% | viability, T/C (second compound 3.16 µM, first compound 10 µM): 1.2% | viability, T/C (second compound 10 µM, first compound 0.0316 µM): 0.28% | viability, T/C (second compound 10 µM, first compound 0.1 µM): 0.36% | viability, T/C (second compound 10 µM, first compound 0.316 µM): 0.35% | viability, T/C (second compound 10 µM, first compound 1 µM): 0.57% | viability, T/C (second compound 10 µM, first compound 3.16 µM): 0.69% | viability, T/C (second compound 10 µM, first compound 10 µM): 0.32%
